This is an account of results in patent US20240294526A1, “FUSED TRI-CYCLIC COMPOUND AS A PDE3/PDE4 DUAL INHIBITOR” (CHIA TAI TIANQING PHARMACEUTICAL GROUP CO., LTD., priority 2018, published 2024).

As usually defined, the IC50 is the concentration that inhibits the measured activity by half.

For one data set, the target named is recombinant human PDE4B (Homo sapiens (Human), UniProt Q07343). Description: In vitro inhibitory activity against PDE 4B enzyme (fluorescence polarization). The format is biochemical. To be noted: 1 μM cAMP. How it is done:
(§1) Experimental objective: to determine the AMP/GMP expression based on fluorescence polarization, i.e., to trace binding of AMP/GMP to antibody so as to indicate enzyme activity.
Experimental buffer solution: 10 mM Tris-HCl (pH 7.5), 5 mM MgCl2, 0.01% Brij 35, 1 mM DTT, and 1% DMSO.
Enzyme: recombinant human PDE4B (Gene accession number: NM_002600; amino acid 305-end) was expressed by baculovirus in Sf9 insect cells using an N-terminal GST tag, with molecularweight being 78 kDa.
(§2) Enzyme substrate: 1 μM cAMP
(§3) Detection: Transcreener® AMP2/GMP2 antibody and AMP2/GMP2 AlexaFluor633 tracer.
(§4) • 1. The recombinant human PDE4B enzyme and enzyme substrate (1 μM cAMP) were each dissolved in newly prepared experimental buffer solution; • 2. The PDE4B enzyme buffer solution was transferred into reaction wells; • 3. The compound which was dissolved in 100% DMSO was added to the reaction wells containing PDE4B enzyme buffer solution by acoustic technique (echo 550; millilambda range) and the mixture was incubated for 10 minutes at room temperature; • 4. The enzyme substrate buffer solution was added to the above reaction wells to initiate reaction; • 5. The resulting mixture was incubated at room temperature for 1 hour; • 6. The detection mixture (Transcreener® AMP2/GMP2 antibody and AMP2/GMP2 AlexaFluor633 tracer) was added to stop the reaction, and the resulting mixture was incubated for 90 minutes while slowly mixing. The measurement range of fluorescence polarization was Ex/Em=620/688.
(§5) Data analysis: the fluorescence polarization signal was converted to nM based on AMP/GMP standard curve and the percentage enzyme activity relative to DMSO control calculated by Excel. GraphPad Prism was used for curve fitting (drawing medical icon).
In general terms: In fluorescence polarisation assays a small probe gives low polarisation when free and higher when bound to something large.

For the next data set, the target named is recombinant human PDE3A (Homo sapiens (Human), UniProt Q14432). Description: In vitro inhibitory activity against PDE 3A enzyme (fluorescence polarization). As to conditions: 1 μM cAMP. The format is biochemical. How it is done: as §1
Sequence of recombinant human PDE3A (Q14432 669-1141 limits assumed): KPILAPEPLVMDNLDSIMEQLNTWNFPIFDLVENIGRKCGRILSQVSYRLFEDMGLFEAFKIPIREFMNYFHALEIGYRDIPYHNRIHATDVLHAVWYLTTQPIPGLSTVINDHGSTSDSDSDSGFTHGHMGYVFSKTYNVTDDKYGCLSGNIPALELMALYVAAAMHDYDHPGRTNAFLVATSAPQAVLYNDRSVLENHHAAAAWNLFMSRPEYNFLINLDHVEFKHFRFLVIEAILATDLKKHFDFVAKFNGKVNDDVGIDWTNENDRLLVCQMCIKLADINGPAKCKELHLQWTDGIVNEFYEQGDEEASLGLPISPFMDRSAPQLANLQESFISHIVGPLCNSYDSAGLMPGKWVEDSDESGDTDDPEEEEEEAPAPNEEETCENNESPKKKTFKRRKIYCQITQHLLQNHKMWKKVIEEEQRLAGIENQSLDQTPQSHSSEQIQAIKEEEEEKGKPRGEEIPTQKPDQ
Experimental buffer solution: 10 mM Tris-HCl (pH 7.5), 5 mM MgCl2, 0.01% Brij 35, 1 mM Dithiothreitol (DTT), and 1% DMSO.
Enzyme: recombinant human PDE3A (Gene accession number: NM_000921; amino acid 669-end) was expressed by baculovirus in Sf9 insect cells using an N-terminal GST tag, with molecularweight being 84 kDa.
as §2, §3
as §4, with “PDE3A” for “PDE4B”, “newly-prepared” for “newly prepared”
as §5

For data set [1] the following is noted: reported; cited from earlier work.
For data set [2] the following is noted: reported; cited from earlier work. The source holds these as a separate data set.
A short description of data set [3]: Pharmacokinetic experiment in beagle dogs. The format is in vivo. How it is done: In this study, male beagle dogs were selected as test animals, and liquid chromatography-tandem mass spectrometry (LC-MS/MS) method was used for quantitatively measuring the drug concentration in plasma of beagle dogs at different time points after intravenous injection or oral administration of compound WX036 so as to evaluate the pharmacokinetic characteristics of the compound WX036 in beagle dogs.
The clear solution of compound WX036 was injected into two 10-12 kg beagle dogs via the cephalic vein or saphenous vein, and the clear solution of test compound was administered intragastrically to two 10-12 kg beagle dogs (overnight fasted). The animals were all subjected to approximately 500 μL of blood collection each time from peripheral veins at 0.0333, 0.0833, 0.25, 0.5, 1, 2, 4, 6, 8, and 24 hours post-dose, and the blood was transferred into commercial centrifuge tubes containing 0.85-1.15 mg of K2 EDTA*2H2O anticoagulant, and plasma was taken by centrifugation at 3000 g for 10 minutes at 4° C. The plasma concentration was measured by LC-MS/MS method, and the relevant pharmacokinetic parameters were calculated by WinNonlin™ Version 6.3 (Pharsight, Mountain View, CA) pharmacokinetic software using non-compartmental model linear logarithmic trapezoid method.

Sequence of recombinant human PDE4B (Q07343 305-736 limits assumed): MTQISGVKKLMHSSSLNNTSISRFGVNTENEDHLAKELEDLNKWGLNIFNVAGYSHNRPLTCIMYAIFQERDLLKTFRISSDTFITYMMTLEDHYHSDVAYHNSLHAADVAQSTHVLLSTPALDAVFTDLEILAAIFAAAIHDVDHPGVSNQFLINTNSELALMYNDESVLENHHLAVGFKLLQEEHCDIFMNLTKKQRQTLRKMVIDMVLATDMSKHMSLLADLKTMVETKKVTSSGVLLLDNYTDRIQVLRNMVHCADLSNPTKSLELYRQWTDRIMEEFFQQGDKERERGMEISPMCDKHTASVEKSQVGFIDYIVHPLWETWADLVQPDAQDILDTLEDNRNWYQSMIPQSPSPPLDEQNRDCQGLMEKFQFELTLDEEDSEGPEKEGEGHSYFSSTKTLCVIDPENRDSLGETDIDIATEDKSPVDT

As to `CCOc1cc2c(cc1OC)-c1c/c(=N\c3c(C)cc(C)cc3C)n(CCNC(=O)c3[nH]nnc3OC)c(=O)n1CC2` [WX026], the IC50 at recombinant human PDE4B is 2.5 nM.

With `CCOc1cc2c(cc1OC)-c1c/c(=N\c3c(C)cc(C)cc3C)n(CCC(=O)Nc3cnn[nH]3)c(=O)n1CC2` [WX055], on recombinant human PDE4B, the half-maximal inhibitory concentration (IC50) was determined as 2.1 nM.

With `CCOc1cc2c(cc1OC)-c1c/c(=N\c3c(C)cc(C)cc3C)n(CCNC(=O)c3cnn[nH]3)c(=O)n1CCO2` [WX053], the IC50 stood at 1.9 nM at recombinant human PDE4B and 0.57 nM at recombinant human PDE3A.

Consider `CCOc1cc2c(cc1OC)-c1c/c(=N\c3c(C)cc(C)cc3C)n(CCNC(=O)c3cnc[nH]3)c(=O)n1CC2` [WX021], for which the IC50 on recombinant human PDE4B was 1.1 nM.

For the compound `COc1cc2c(cc1OC)-c1c/c(=N\c3c(C)cc(C)cc3C)n(CCNC(N)=O)c(=O)n1CC2` [RPL554], in data set [1], the plasma clearance result is “high”. For the same compound, the solubility result in data set [2] was “poor”.

For the compound `CCOc1cc2c(cc1OC)-c1c/c(=N\c3c(C)cc(C)cc3C)n(CCNC(=O)c3[nH]ncc3OC)c(=O)n1CC2` [WX037], the IC50 at recombinant human PDE4B was determined as 1.7 nM.

As to `CCOc1cc2c(cc1OC)-c1c/c(=N\c3c(C)cc(C)cc3C)n(CCNC(=O)c3ncco3)c(=O)n1CC2` [WX019], the half-inhibitory concentration (IC50) at recombinant human PDE4B was determined as 0.48 nM.

As to `CCOc1cc2c(cc1OC)-c1c/c(=N\c3c(C)cc(C)cc3C)n(CCNC(=O)c3c(O)nnn3C)c(=O)n1CC2` [WX036], the “Area under plasma concentration-time curve (0-inf)” value in data set [3] (intravenous injection 0.5 mg/kg) was 0.21 µM·h. In data set [3] (oral administration 3 mg/kg), the “Area under plasma concentration-time curve (0-inf)” value amounted to 0.123 µM·h, the Peak concentration is listed as 59.4 nM and the Time to peak was 0.6 h.

With `CCOc1cc2c(cc1OC)-c1c/c(=N\c3c(C)cc(C)cc3C)n(CCNC(=O)c3ncon3)c(=O)n1CC2` [WX020], the 50% inhibitory concentration (IC50) at recombinant human PDE4B is 0.47 nM.

Take `CCOc1cc2c(cc1OC)-c1c/c(=N\c3c(C)cc(C)cc3C)n(CCC(=O)Nc3ncco3)c(=O)n1CC2` [WX056]: the IC50 on recombinant human PDE4B came to 9.1 nM.

For the compound `CCOc1cc2c(cc1OC)-c1c/c(=N\c3c(C)cc(C)cc3C)n(CCNC(=O)c3ncc[nH]3)c(=O)n1CC2` [WX017], on recombinant human PDE4B, the concentration for half-maximal inhibition (IC50) came to 0.43 nM.

For `CCOc1cc2c(cc1OC)-c1c/c(=N\c3c(C)cc(C)cc3C)n(CCNC(=O)c3cnn[nH]3)c(=O)n1CCC2` [WX048], the IC50 on recombinant human PDE4B is 0.27 nM; at recombinant human PDE3A, 0.03 nM.

As to `CCOc1cc2c(cc1OC)-c1c/c(=N\c3c(C)cc(C)cc3C)n(CCC(=O)Nc3cn[nH]c3)c(=O)n1CC2` [WX057], the IC50 on recombinant human PDE4B was found to be 5.4 nM.

Take `CCOc1cc2c(cc1OC)-c1c/c(=N\c3c(C)cc(C)cc3C)n(CCNC(=O)c3ccn[nH]3)c(=O)n1CC2` [WX018]: the IC50 on recombinant human PDE4B worked out at 0.05 nM.

With `CCOc1cc2c(cc1OC)-c1c/c(=N\c3c(C)cc(C)cc3C)n(CCNC(=O)c3ccn[nH]3)c(=O)n1CCC2` [WX050], the half-maximal inhibitory concentration (IC50) at recombinant human PDE4B was found to be 0.24 nM; at recombinant human PDE3A, 1.1 nM.

Turning to `CCOc1cc2c(cc1OC)-c1c/c(=N\c3c(C)cc(C)cc3C)n(CCNC(=O)c3ccn[nH]3)c(=O)n1CCO2` [WX052], the IC50 at recombinant human PDE4B turned out to be 0.18 nM; on recombinant human PDE3A, 0.5 nM.

For the compound `CCOc1cc2c(cc1OC)-c1c/c(=N\c3c(C)cc(C)cc3C)n(CCNC(=O)c3nnc[nH]3)c(=O)n1CCC2` [WX047], the results for the half-maximal inhibitory concentration (IC50) on recombinant human PDE4B and on recombinant human PDE3A were 0.16 nM and 0.1 nM, respectively.

Turning to `COc1cc2c(cc1OC)-c1cc(Oc3c(C(C)C)cccc3C(C)C)nc(=O)n1CC2` [RPL565], the plasma clearance result in data set [1] is on record as “high”. The solubility entry in data set [2] is “poor”.

As to `CCOc1cc2c(cc1OC)-c1c/c(=N\c3c(C)cc(C)cc3C)n(CCNc3nc[nH]n3)c(=O)n1CCC2` [WX004], the IC50 was 0.12 nM at recombinant human PDE4B and 0.63 nM on recombinant human PDE3A.

For `CCOc1cc2c(cc1OC)-c1c/c(=N\c3c(C)cc(C)cc3C)n(CCNC(=O)c3cnn[nH]3)c(=O)n1CC2` [WX016], the IC50 on recombinant human PDE4B came to 0.24 nM.

Turning to `CCOc1cc2c(cc1OC)-c1c/c(=N\c3c(C)cc(C)cc3C)n(CCNC(=O)c3[nH]nnc3N)c(=O)n1CC2` [WX025], on recombinant human PDE4B, the 50% inhibitory concentration (IC50) came out at 0.44 nM.

In the case of `CCOc1cc2c(cc1OC)-c1c/c(=N\c3c(C)cc(C)cc3C)n(CCNC(=O)c3cnc[nH]3)c(=O)n1CCC2` [WX049], the 50% inhibitory concentration (IC50) at recombinant human PDE4B is 0.05 nM; on recombinant human PDE3A it was 0.3 nM.
